According to PubChem BioAssay AID256 (DTP/NCI, 2004):
“And” between values parts separate entries of the source, which are not always exact repeats. Equal values may be shown once. Toxic doses and inconclusive results are not listed. Rule for the calls: active = survival T/C of 150% or more; inactive = T/C below 125% in these data.

Test system: CD2F1 mice, L1210 leukemia ip, survival T/C
Test: NCI In Vivo Anticancer Drug Screen. Data for tumor model L1210 Leukemia (intraperitoneal) in CD2F1 (CDF1) mice
Details: higher = longer survival
How it was run: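 In this screen, transplantable tumors were grown in mice given either the compound or its vehicle. Results were expressed as the treated measurement relative to the control measurement.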

[1] = endpoint: mean survival time, dose: 100.0 mg/kg/injection, schedule: Q01DX009 (ip), vehicle: saline
[2] = endpoint: mean survival time, dose: 200.0 mg/kg/injection, schedule: Q01DX009 (ip), vehicle: saline
[3] = endpoint: mean survival time, dose: 400.0 mg/kg/injection, schedule: Q01DX009 (ip), vehicle: saline
[4] = endpoint: mean survival time, dose: 50.0 mg/kg/injection, schedule: Q01DX009 (ip), vehicle: Klucel (hydroxypropylcellulose) (HPC)
[5] = endpoint: mean survival time, dose: 100.0 mg/kg/injection, schedule: Q01DX009 (ip), vehicle: Klucel (hydroxypropylcellulose) (HPC)
[6] = endpoint: mean survival time, dose: 200.0 mg/kg/injection, schedule: Q01DX009 (ip), vehicle: Klucel (hydroxypropylcellulose) (HPC)
[7] = endpoint: mean survival time, dose: 25.0 mg/kg/injection, schedule: Q01DX009 (ip), vehicle: saline
[8] = endpoint: mean survival time, dose: 50.0 mg/kg/injection, schedule: Q01DX009 (ip), vehicle: saline
[9] = endpoint: mean survival time, dose: 100.0 mg/kg/injection, schedule: Q04DX003 (ip), vehicle: saline with Tween-80
[10] = endpoint: mean survival time, dose: 200.0 mg/kg/injection, schedule: Q04DX003 (ip), vehicle: saline with Tween-80
[11] = endpoint: mean survival time, dose: 100.0 mg/kg/injection, schedule: Q04DX002 (ip), vehicle: saline with Tween-80
[12] = endpoint: mean survival time, dose: 200.0 mg/kg/injection, schedule: Q04DX002 (ip), vehicle: saline with Tween-80
[13] = endpoint: mean survival time, dose: 400.0 mg/kg/injection, schedule: Q04DX003 (ip), vehicle: saline with Tween-80
[14] = endpoint: mean survival time, dose: 100.0 mg/kg/injection, schedule: Q01DX001 (ip), vehicle: saline with Tween-80
[15] = endpoint: mean survival time, dose: 200.0 mg/kg/injection, schedule: Q01DX001 (ip), vehicle: saline with Tween-80
[16] = endpoint: mean survival time, dose: 400.0 mg/kg/injection, schedule: Q01DX001 (ip), vehicle: saline with Tween-80
[17] = endpoint: mean survival time, dose: 25.0 mg/kg/injection, schedule: Q01DX001 (ip), vehicle: saline with Tween-80
[18] = endpoint: mean survival time, dose: 50.0 mg/kg/injection, schedule: Q01DX001 (ip), vehicle: saline with Tween-80
[19] = endpoint: mean survival time, dose: 100.0 mg/kg/injection, schedule: Q01DX009 (ip), vehicle: saline with Tween-80
[20] = endpoint: mean survival time, dose: 200.0 mg/kg/injection, schedule: Q01DX009 (ip), vehicle: saline with Tween-80
[21] = endpoint: mean survival time, dose: 400.0 mg/kg/injection, schedule: Q01DX009 (ip), vehicle: saline with Tween-80

Measured: T/C

CCC(N)(CO)CO
inactive: [1] 100 % of control | [2] 94 % of control | [3] 94 % of control

CCCCC(C(=O)O)c1ccccc1 (stereo unspecified)
inactive: [1] 98 % of control | [2] 98 % of control | [3] 101 % of control

Cc1ccc(S(=O)(=O)OCC2OCOC(C(O)CO)C2O)cc1 (stereo unspecified)
inactive: [4] 101 % of control | [5] 97 % of control | [6] 97 % of control

CC(NC(=O)NCCCl)c1ccccc1 (stereo unspecified)
inactive: [7] 88 % of control | [8] 86 % of control

[N-]=[N+]=CC(=O)CCC(NC(=O)OCc1ccccc1)C(=O)OCc1ccccc1 (stereo unspecified)
inactive: endpoint: median survival time, dose: 200.0 mg/kg/injection, schedule: Q01DX009 (ip), vehicle: Klucel (hydroxypropylcellulose) (HPC) 123 % of control and 96 % of control and 111 % of control | endpoint: median survival time, dose: 400.0 mg/kg/injection, schedule: Q01DX009 (ip), vehicle: Klucel (hydroxypropylcellulose) (HPC) 114 % of control

CCCCN(CCCC)CC(C)(O)c1cc(-c2ccc(Cl)cc2)nc2c(C)cc(C)cc12 (stereo unspecified)
inactive: [9] 87 % of control | [10] 89 % of control

COc1cccc(/C=C(\C(=O)O)c2cccc(OC)c2)c1
inactive: endpoint: mean survival time, dose: 50.0 mg/kg/injection, schedule: Q04DX002 (ip), vehicle: saline with Tween-80 89 % of control | [11] 86 % of control | [12] 104 % of control

CCOC(=O)Nc1cc(N(C)C)c(N)c(N)n1
inactive: endpoint: mean survival time, dose: 100.0 mg/kg/injection, schedule: Q01DX001 (ip), vehicle: carboxymethylcellulose (CMC) 100 % of control | endpoint: mean survival time, dose: 200.0 mg/kg/injection, schedule: Q01DX001 (ip), vehicle: carboxymethylcellulose (CMC) 100 % of control

CCOC(=O)c1cc2cc([N+](=O)[O-])ccc2[nH]1
inactive: [9] 92 % of control | [10] 87 % of control | [13] 91 % of control

CCCCNC1=CC(=O)c2ccccc2C1=O
inactive: [14] 103 % of control | [15] 95 % of control | [16] 92 % of control

Clc1ccc(-c2ccncc2)cc1
inactive: [11] 101 % of control | [12] 108 % of control | endpoint: mean survival time, dose: 400.0 mg/kg/injection, schedule: Q04DX002 (ip), vehicle: saline with Tween-80 103 % of control

O=C1C2C3CCC(CC3)C2C(=O)C2C3CCC(C3)C12 (stereo unspecified)
inactive: [9] 100 % of control | [10] 92 % of control | [13] 88 % of control

CC12OCCCC1C1CCCCC12 (stereo unspecified)
inactive: [9] 95 % of control | [10] 95 % of control | [13] 90 % of control

CN=C(NC)S(=O)O
inactive: [1] 97 % of control | [2] 97 % of control | [3] 101 % of control

Cc1ccc([NH-])c(Cl)c1.Cc1ccc([NH-])c(Cl)c1.[Cl][Pt+2][Cl]
inactive: endpoint: mean survival time, dose: 12.5 mg/kg/injection, schedule: Q04DX003 (ip), vehicle: saline with Tween-80 95 % of control | endpoint: mean survival time, dose: 25.0 mg/kg/injection, schedule: Q04DX003 (ip), vehicle: saline with Tween-80 97 % of control | endpoint: mean survival time, dose: 50.0 mg/kg/injection, schedule: Q04DX003 (ip), vehicle: saline with Tween-80 97 % of control | [9] 97 % of control | [10] 89 % of control

OCCOCC12c3ccccc3C3C(c4ccccc41)C32 (stereo unspecified)
inactive: [17] 91 % of control | [18] 97 % of control | [14] 105 % of control | [15] 94 % of control

O=[N+]([O-])c1ccc2c(c1[N+](=O)[O-])CCCC2
inactive: [14] 104 % of control | [15] 107 % of control | [16] 93 % of control

CC12CCC(=O)C(I)(I)C1=CCCC2=O (stereo unspecified)
inactive: [14] 91 % of control | [19] 88 % of control | [20] 88 % of control | [21] 87 % of control

O=C([CH-]C(=O)C(F)(F)F)c1ccccc1.O=C([CH-]C(=O)C(F)(F)F)c1ccccc1.O=C([CH-]C(=O)C(F)(F)F)c1ccccc1.O=C([CH-]C(=O)C(F)(F)F)c1ccccc1.[Eu+3].c1ccncc1
inactive: endpoint: mean survival time, dose: 12.5 mg/kg/injection, schedule: Q01DX009 (ip), vehicle: Klucel (hydroxypropylcellulose) (HPC) 95 % of control and 101 % of control | endpoint: mean survival time, dose: 25.0 mg/kg/injection, schedule: Q01DX009 (ip), vehicle: Klucel (hydroxypropylcellulose) (HPC) 101 % of control | [4] 89 % of control and 106 % of control | [5] 97 % of control and 109 % of control | [6] 95 % of control and 100 % of control | endpoint: mean survival time, dose: 400.0 mg/kg/injection, schedule: Q01DX009 (ip), vehicle: Klucel (hydroxypropylcellulose) (HPC) 97 % of control and 100 % of control

CC(=O)OC1CC2CC(C1C)C2(C)C (stereo unspecified)
inactive: [19] 91 % of control | [9] 90 % of control | [10] 88 % of control | [13] 88 % of control

CC(=O)Nc1cccc(Cl)c1
inactive: [14] 92 % of control | [19] 106 % of control | [9] 98 % of control and 103 % of control | [15] 100 % of control | [20] 96 % of control | [10] 98 % of control and 116 % of control | [16] 94 % of control | [21] 91 % of control | [13] 94 % of control and 109 % of control

CCOC(=O)CCC(NC(=O)C(CSC(c1ccccc1)(c1ccccc1)c1ccccc1)NC(c1ccccc1)(c1ccccc1)c1ccccc1)C(=O)OCC (stereo unspecified)
inactive: [7] 93 % of control | [8] 100 % of control | [1] 96 % of control | [2] 96 % of control | [3] 96 % of control

[O]=[Zr]
inactive: endpoint: mean survival time, dose: 75.0 mg/kg/injection, schedule: Q01DX001 (ip), vehicle: saline 94 % of control | endpoint: mean survival time, dose: 150.0 mg/kg/injection, schedule: Q01DX001 (ip), vehicle: saline 97 % of control | endpoint: mean survival time, dose: 300.0 mg/kg/injection, schedule: Q01DX001 (ip), vehicle: saline 98 % of control

O=C1C=C(N2CC2)C(=O)C=C1N1CC1
inactive: endpoint: mean survival time, dose: 0.12 mg/kg/injection, schedule: Q01DX Z (ip), vehicle: saline 120 % of control and 103 % of control | endpoint: mean survival time, dose: 0.25 mg/kg/injection, schedule: Q01DX Z (ip), vehicle: saline 119 % of control | endpoint: mean survival time, dose: 0.5 mg/kg/injection, schedule: Q01DX Z (ip), vehicle: saline 120 % of control | endpoint: mean survival time, dose: 1.0 mg/kg/injection, schedule: Q01DX Z (ip), vehicle: saline 91 % of control

C1CCC(NC2CCCCC2)CC1
inactive: [17] 104 % of control | [18] 101 % of control | endpoint: median survival time, dose: 25.0 mg/kg/injection, schedule: Q01DX009 (ip), vehicle: saline 94 % of control | endpoint: median survival time, dose: 50.0 mg/kg/injection, schedule: Q01DX009 (ip), vehicle: saline 100 % of control | endpoint: median survival time, dose: 100.0 mg/kg/injection, schedule: Q01DX009 (ip), vehicle: saline 94 % of control | endpoint: median survival time, dose: 200.0 mg/kg/injection, schedule: Q01DX009 (ip), vehicle: saline 97 % of control | endpoint: median survival time, dose: 400.0 mg/kg/injection, schedule: Q01DX009 (ip), vehicle: saline 100 % of control

Cc1c2c(ccc3ccccc32)c[n+]2ccccc12
inactive: endpoint: mean survival time, dose: 1.56 mg/kg/injection, schedule: Q01DX009 (ip), vehicle: saline 98 % of control and 100 % of control | endpoint: mean survival time, dose: 3.12 mg/kg/injection, schedule: Q01DX009 (ip), vehicle: saline 103 % of control and 106 % of control | endpoint: mean survival time, dose: 6.25 mg/kg/injection, schedule: Q01DX009 (ip), vehicle: saline 104 % of control and 105 % of control | endpoint: mean survival time, dose: 12.5 mg/kg/injection, schedule: Q01DX009 (ip), vehicle: saline 103 % of control and 108 % of control
